Experimental data taken from patent US5428059A, “Benzopyran derivatives and an anti-allergic agent possessing the same as the active ingredient” (Dainippon Ink & Chemicals, Inc., priority 1991, dated 1995).

tested on: Hartley-type male guinea pigs; test: Guinea Pig Homogeneous Skin Passive Anaphylaxis Assay (PCA reaction); format: in vivo, guinea pig (Hartley-type); conditions: 10 mg/kg oral, 48 h after sensitization
Protocol: In order to confirm the anti-allergic action of the compounds according to the present invention, as an anti-allergic action confirmation assay, the widely used Guinea Pig Homogeneous Skin Passive Anaphylaxis Assay (PCA Reaction Assay; Passive Cutaneous Anaphylaxis Reaction Assay) was carried out. The assay method used will be explained in the following.
Assay method: Hartley-type male guinea pigs (body weight: 250~300 g) were sensitized by the following procedure; a mixture of 2 μg of egg albumin (OVA) and 5 μg of aluminium hydroxide gel was administered intraperitoneally 3 times every 2 weeks, and the anti-OVA blood serum was manufactured.
The anti-blood serum obtained was then diluted 120 times using physiological saline solution, and then to groups each containing 6 shaved guinea pigs, was injected at a quantity of 0.05 ml respectively, into two positions in the back portion, inside the skin of each animal.
After the 48th hour of sensitization, 10 mg/kg of the test substance to be tested was orally administered, following which a mixture of 2 mg OVA and 5 mg of Evans Blue was administered by intraveneous injection into the hind leg, triggering the anaphylaxis reaction. As the positive control, Tranilast, a well known anti-allergic agent, was used, and in the same manner as the substances to be tested, 100 mg/kg of it was orally administered after the 48th hour of sensitization.
30 minutes after triggering the reaction, the animals were bled to death under ether anesthesia, and their back portion skins were peeled off. The long and short diameters of pigment leakage spots on the interior surface of the skins were measured, and the product of these (mm^2) were entered into formula 1 as "pigment leakage amount", from which the allergic reaction inhibitory index wins calculated. [formula]
I: Allergic reaction inhibitory index (%)
A: Pigment leakage amount of solvent control group
B: Pigment leakage amount of test substance group
C: Pigment leakage amount of […]

Compound	Allergic reaction inhibitory index (%)
CC(=O)Oc1ccc2c(OC(C)=O)c(OC/C=C(\C)CCC=C(C)C)c(=O)oc2c1 [Compound 22, 3-(geranyloxy)-4,7-(diacetoxy)-2H-1-benzopyran-2-one]	31

same assay, conditions: Cavia porcellus, 10 mg/kg oral, 48 h after sensitization, read-out: Allergic reaction inhibitory index (%)

Compound	inhibition in vivo at 10 mg/kg [%]
CC(C)=CCC/C(C)=C/COc1c(O)c(=O)oc2cccc(OC(C)C)c12 [Compound 220, 3-hydroxy-4-(geranyloxy)-5-(isopropoxy)-2H-1-benzopyran-2-one]	30
CCCCCCCCCCOc1cccc2oc(=O)c(OC/C=C(\C)CCC=C(C)C)c(OC)c12 [Compound 241, 3-(geranyloxy)-4-(methoxy)-5-(decyloxy)-2H-1-benzopyran-2-one]	32
CCCCCCCCCCOc1cccc2oc(=O)c(OC/C=C(\C)CCC=C(C)C)c(O)c12 [Compound 237, 3-(geranyloxy)-4-hydroxy-5-(decyloxy)-2H-1-benzopyran-2-one]	34
CC(C)=CCC/C(C)=C/COc1ccc2c(OC/C=C(\C)CCC=C(C)C)c(O)c(=O)oc2c1 [Compound 84, 3-hydroxy-4,7-(digeranyloxy)-2H-1-benzopyran-2-one]	30
CC(C)=CCC/C(C)=C/COc1c(O)c(=O)oc2cccc(O)c12 [Compound 188, 3,5-(dihydroxy)-4-(geranyloxy)-2H-1-benzopyran-2-one]	32
CC(C)=CCC/C(C)=C/COc1c(OC(=O)c2ccccc2)c(=O)oc2c(O)cccc12 [Compound 106, 3-(benzoyloxy)-4-(geranyloxy)-8-hydroxy-2H-1-benzopyran-2-one]	31
COc1cccc2oc(=O)c(O)c(O)c12 [Compound 195, 3,4-(dihydroxy)-5-(methoxy)-2H-1-benzopyran-2-one]	55
CCCCCCCCCCOc1c(OC)c(=O)oc2cc(OC)ccc12 [Compound 36, 3,7-(dimethoxy)-4-(decyloxy)-2H-1-benzopyran-2-one]	30
CCCCCCCCCCOc1cccc2oc(=O)c(OC/C=C(\C)CCC=C(C)C)c(OC(C)=O)c12 [Compound 239, 3-(geranyloxy)-4-(acetoxy)-5-(decyloxy)-2H-1-benzopyran-2-one]	31
CC(C)Oc1ccc2c(OC(=O)c3ccccc3)c(OC(C)C)c(=O)oc2c1 [Compound 52, 3,7-(diisopropoxy)-4-(benzoyloxy)-2H-1-benzopyran-2-one]	32
CCCCCCCCCCOc1c(O)c2ccc(O)cc2oc1=O [Compound 16, 3-(decyloxy)-4,7-(dihydroxy)-2H-1-benzopyran-2-one]	40
CCCCCCCCCCOc1cccc2oc(=O)c(OC/C=C(\C)CCC=C(C)C)c(OC/C=C(\C)CCC=C(C)C)c12 [Compound 243, 3,4-(digeranyloxy)-5-(decyloxy)-2H-1-benzopyran-2-one]	31
CC(C)=CCC/C(C)=C/COc1cccc2oc(=O)c(O)c(OC(C)C)c12 [Compound 249, 3-hydroxy-4-(isopropoxy)-5-(geranyloxy)-2H-1-benzopyran-2-one]	32
CC(C)=CCC/C(C)=C/COc1ccc2c(OC/C=C(\C)CCC=C(C)C)c(OC(C)C)c(=O)oc2c1 [Compound 88, 3-(isopropoxy)-4,7-(digeranyloxy)-2H-1-benzopyran-2-one]	30
COc1cccc2oc(=O)c(OC/C=C(\C)CCC=C(C)C)c(OC(C)C)c12 [Compound 207, 3-(geranyloxy)-4-(isopropoxy)-5-(methoxy)-2H-1-benzopyran-2-one]	33
CCCCCCCCCCOc1cccc2oc(=O)c(OC(C)=O)c(OC(C)C)c12 [Compound 235, 3-(acetoxy)-4-(isopropoxy)-5-(decyloxy)-2H-1-benzopyran-2-one]	30
CCCCCCCCCCOc1c(OC(C)=O)c(=O)oc2c(OC(C)C)cccc12 [Compound 136, 3-(acetoxy)-4-(decyloxy)-8-(isopropoxy)-2H-1-benzopyran-2-one]	33
CCCCCCCCCCOc1c(OC)c(=O)oc2c(OC(C)C)cccc12 [Compound 135, 3-(methoxy)-4-(decyloxy)-8-(isopropoxy)-2H-1-benzoyran-2-one]	30
COc1cccc2c(OC(=O)c3ccccc3)c(OC(C)=O)c(=O)oc12 [Compound 114, 3-(acetoxy)-4-(benzoyloxy)-8-(methoxy)-2H-1-benzopyran-2-one]	31
COc1ccc2c(O)c(O)c(=O)oc2c1 [Compound 28, 3,4-dihydroxy-7-(methoxy)-2H-1-benzopyran-2-one]	53
CCCCCCCCCCOc1cccc2c(O)c(OC(C)C)c(=O)oc12 [Compound 147, 3-(isopropoxy)-4-hydroxy-8-(decyloxy)-2H-1-benzopyran-2-one]	30

Compound	inhibition in vivo at 10 mg/kg [%]
O=c1oc2cc(O)ccc2c(O)c1O [Compound 5, 3,4,7-trihydroxy-2H-1-benzopyran-2-one]	68
CC(=O)Oc1c(O)c(=O)oc2cccc(OC/C=C(\C)CCC=C(C)C)c12 [Compound 246, 3-hydroxy-4-(acetoxy)-5-(geranyloxy)-2H-1-benzopyran-2-one]	30
CCCCCCCCCCOc1cccc2oc(=O)c(O)c(O)c12 [Compound 230, 3,4-(dihydroxy)-5-(decyloxy)-2H-1-benzopyran-2-one]	43
COc1cccc2oc(=O)c(OC(C)=O)c(OC/C=C(\C)CCC=C(C)C)c12 [Compound 206, 3-(acetoxy)-4-(geranyloxy)-5-(methoxy)-2H-1-benzopyran-2-one]	32
COc1cccc2c(OC/C=C(\C)CCC=C(C)C)c(O)c(=O)oc12 [Compound 121, 3-hydroxy-4-(geranyloxy)-8-(methoxy)-2H-1-benzopyran-2-one]	30
CCCCCCCCCCOc1c(O)c(=O)oc2ccc(OC)cc12 [Compound 276, 3-(hydroxy)-4-(decyloxy)-6-(methoxy)-2H-1-benzopyran-2-one]	34
CCCCCCCCCCOc1c(OC(=O)c2ccccc2)c2c(O)cccc2oc1=O [Compound 186, 3-(decyloxy)-4-(benzoyloxy)-5-hydroxy-2H-1-benzopyran-2-one]	32
CC(C)Oc1c(O)c(=O)oc2c(OC(C)C)cccc12 [Compound 134, 3-hydroxy-4,8-(disopropoxy)-2H-1-benzopyran-2-one]	30
CC(=O)Oc1c(OC(C)=O)c2cccc(OC(C)=O)c2oc1=O [Compound 95, 3,4,8-(triacetoxy)-2H-1-benzopyran-2-one]	30
CC(C)=CCC/C(C)=C/COc1c(OC(=O)c2ccccc2)c(=O)oc2cccc(O)c12 [Compound 190, 3-(benzoyloxy)-4-(geranyloxy)-5-hydroxy-2H-1-benzopyran-2-one]	31
CC(=O)Oc1ccc2c(OC(C)=O)c(OC(C)=O)c(=O)oc2c1 [Compound 11, 3,4,7-(triacetoxy)-2H-1-benzopyran-2-one]	31
CC(=O)Oc1c(O)c(=O)oc2cc(OC(C)C)ccc12 [Compound 46, 3-hydroxy-4-(acetoxy)-7-(isopropoxy)-2H-1-benzopyran-2-one]	34
CCCCCCCCCCOc1cccc2oc(=O)c(OC(C)C)c(O)c12 [Compound 233, 3-(isopropoxy)-4-hydroxy-5-(decyloxy)-2H-1-benzopyran-2-one]	39
CCCCCCCCCCOc1c(OC)c(=O)oc2cccc(OC(C)C)c12 [Compound 216, 3-(methoxy)-4-(decyloxy)-5-(isopropoxy)-2H-1-benzopyran-2-one]	34
CC(=O)Oc1c(O)c(=O)oc2cc(OC/C=C(\C)CCC=C(C)C)ccc12 [Compound 76, 3-hydroxy-4-(acetoxy)-7-(geranyloxy)-2H-1-benzopyran-2-one]	32
CC(C)Oc1c(OC(=O)c2ccccc2)c2ccc(O)cc2oc1=O [Compound 13, 3-(isopropoxy)-4-(benzoyloxy)-7-hydroxy-2H-1-benzopyran-2-one]	32
O=c1oc2cccc(O)c2c(O)c1O [Compound 177, 3,4,5-trihydroxy-2H-1-benzopyran-2-one]	37
COc1c(OC/C=C(\C)CCC=C(C)C)c2cccc(OC(C)C)c2oc1=O [Compound 141, 3-(methoxy)-4-(geranyloxy)-8-(isopropoxy)-2H-1-benzopyran-2-one]	32
CCCCCCCCCCOc1ccc2c(O)c(OC)c(=O)oc2c1 [Compound 62, 3-(methoxy)-4-hydroxy-7-(decyloxy)-2H-1-benzopyran-2-one]	43
COc1ccc2c(O)c(OC(C)=O)c(=O)oc2c1 [Compound 29, 3-(acetoxy)-4-hydroxy-7-(methoxy)-2H-1-benzopyran-2-one]	46
CC(C)=CCC/C(C)=C/COc1cccc2oc(=O)c(OC(=O)c3ccccc3)c(OC/C=C(\C)CCC=C(C)C)c12 [Compound 256, 3-(benzoyloxy)-4,5-(digeranyloxy)-2H-1-benzopyran-2-one]	30
